Test results taken from patent publication US4478840A, “Appetite suppressing compositions and methods” (E. I. Du Pont de Nemours and Company, priority 1983, dated 1984).

Assays:
[1] = system: rats; conditions: sweetened Enfamil baby formula; subcutaneous; cited from earlier work
[2] = Analgesic/narcotic antagonist property; conditions: stated in words, no test described
[3] = system: food-deprived rats; conditions: cited from earlier work
[4] = system: food-deprived mice; conditions: cited from earlier work
[5] = system: Female CF1 mice; experiment: Anorexia test, oral dose route (milk consumption of fasted mice); type: in vivo, mouse; conditions: for ED50: Mus musculus, oral, female CF1 mice fasted 17 to 21 hours, dose at which treated mice would consume 50% as much milk as controls, milk 1/2 h after dose, 30 min count; for food intake in mice: summary statement on Table I
Description: Female CF1 mice, which had been fasted for 17 to 21 hours, were dosed orally with the test compound (ten or more mice per dose). One-half hour later, each mouse was transferred to an individual compartment (13.3 cm×12.7 cm×12.7 cm) with a 0.64 cm×0.64 cm wire mesh floor. Inside each compartment was a brass bar (13 cm×1.2 cm×1.2 cm) in the top of which were ten shallow, round spot depressions (0.8 cm diameter). Each depression contained 0.05 ml of 50% sweetened condensed milk.
Thirty minutes after the mice were transferred into the compartments, the number of milk spots each mouse had consumed was counted. Fractions of spots consumed also were estimated and counted. The percent anorexigenic effect was estimated by comparison of the mean number of spots of milk consumed per mouse at a given dose with the mean number of spots consumed per vehicle-treated control mouse. Dose-response curves were plotted and from these the ED50%, the dose at which treated mice would be expected to consume 50% as much milk as control mice, was calculated.

[6] = system: Male CF1 mice; experiment: Anorexia test, subcutaneous dose route (milk consumption of fasted mice); type: in vivo; conditions: Mus musculus, sc, male CF1 mice fasted 17 to 21 hours, dose at which treated mice would consume 50% as much milk as controls, milk 7 1/2 to 15 min after dose, 10 min count
Description: Male CF1 mice, which had been fasted for 17 to 21 hours, were dosed subcutaneously with the test compound (20 mice per dose) and placed into an individual compartment (13.3 cm×12.7 cm×12.7 cm) with a 0.64 cm×0.64 cm wire mesh floor. 71/2 to 15 minutes later a black Lucite bar (13 cm×1.2 cm×1.2 cm) in the top of which were ten shallow round spot depressions (0.8 cm diameter) was inserted into each compartment. Each depression contained 0.05 ml of 50% sweetened condensed milk.
Ten minutes after the milk was presented to the mice, the number of milk spots each mouse had consumed was counted. Fractions of spots consumed also were estimated and counted. Dose-response curves were plotted and from these the ED50%, the dose at which treated mice would be expected to consume 50% as much milk as control mice, was calculated.

[7] = system: mammals; conditions: oral; cited from earlier work

Structure (SMILES) | fluid intake of rats [1] | ED50 [5] | ED50 [6] | other results
C=CCN1CC[C@]23c4c5ccc(O)c4O[C@H]2[C@@H](O)C=C[C@H]3[C@H]1C5 [nalorphine, N-allylnormorphine] | reduced |  |  | 
Oc1ccc2c3c1O[C@H]1CCC[C@@]4(O)[C@@H](C2)N(CC2CCC2)CC[C@]314 [17-cyclobutylmethyl-4,5α-epoxymorphinan-3,14-diol] |  |  |  | analgesic/narcotic antagonist property [2]: mixed analgesic/narcotic antagonist
C=CCN1CC[C@]23c4c5ccc(O)c4O[C@H]2C(=O)CC[C@@]3(O)[C@H]1C5 [naloxone, N-allyl-14-hydroxy-7,8-dihydronormorphinone] | reduced |  |  | eating by food-deprived rats [3]: suppresses eating; eating by food-deprived mice [4]: not by food-deprived mice
CCNC(C)Cc1cccc(C(F)(F)F)c1 (centres unmarked) [Fenfluramine] |  | 13.5 mg/kg | 7.6 mg/kg | 
Cl.Oc1ccc2c3c1O[C@H]1CCC[C@@]4(O)[C@@H](C2)N(CC2CC2)CC[C@]314 [Example 1, 17-Cyclopropylmethyl-4,5α-epoxymorphinan-3,14-diol, Hydrochloride] |  | 2.5 mg/kg |  | food intake in mice [5]: decreased food intake
O=C1CC[C@@]2(O)[C@H]3Cc4ccc(O)c5c4[C@@]2(CCN3CC2CC2)[C@H]1O5 [Naltrexone, (-)-17-cyclopropylmethyl-4,5α-epoxy-3,14-dihydroxymorphinan-6-one] | reduced | 3 mg/kg | 0.4 mg/kg | appetite suppression [7]: appetite suppression
Cl.Oc1ccc2c3c1O[C@H]1CCC[C@@]4(O)[C@@H](C2)N(CC2CCC2)CC[C@]314 [Example 2, 17-Cyclobutylmethyl-4,5α-epoxymorphinan-3,14-diol, Hydrochloride] |  | 84 mg/kg | 3.2 mg/kg | food intake in mice [5]: decreased food intake
Oc1ccc2c3c1O[C@H]1CCC[C@@]4(O)[C@@H](C2)N(CC2CC2)CC[C@]314 [17-cyclopropylmethyl-4,5α-epoxymorphinan-3,14-diol] |  |  |  | analgesic/narcotic antagonist property [2]: narcotic antagonist
